The text below walks through data of patent publication US11655235B2, “Pyrrolidine and piperidine compounds” (YUHAN CORPORATION, priority 2019, dated 2023).

Format in all cases: biochemical
One experiment has as its target T1, Recombinant human FAP (Homo sapiens, UniProt Q12884).
T1 construct: purchased R&D systems
T1 sequence (Q12884 1-760): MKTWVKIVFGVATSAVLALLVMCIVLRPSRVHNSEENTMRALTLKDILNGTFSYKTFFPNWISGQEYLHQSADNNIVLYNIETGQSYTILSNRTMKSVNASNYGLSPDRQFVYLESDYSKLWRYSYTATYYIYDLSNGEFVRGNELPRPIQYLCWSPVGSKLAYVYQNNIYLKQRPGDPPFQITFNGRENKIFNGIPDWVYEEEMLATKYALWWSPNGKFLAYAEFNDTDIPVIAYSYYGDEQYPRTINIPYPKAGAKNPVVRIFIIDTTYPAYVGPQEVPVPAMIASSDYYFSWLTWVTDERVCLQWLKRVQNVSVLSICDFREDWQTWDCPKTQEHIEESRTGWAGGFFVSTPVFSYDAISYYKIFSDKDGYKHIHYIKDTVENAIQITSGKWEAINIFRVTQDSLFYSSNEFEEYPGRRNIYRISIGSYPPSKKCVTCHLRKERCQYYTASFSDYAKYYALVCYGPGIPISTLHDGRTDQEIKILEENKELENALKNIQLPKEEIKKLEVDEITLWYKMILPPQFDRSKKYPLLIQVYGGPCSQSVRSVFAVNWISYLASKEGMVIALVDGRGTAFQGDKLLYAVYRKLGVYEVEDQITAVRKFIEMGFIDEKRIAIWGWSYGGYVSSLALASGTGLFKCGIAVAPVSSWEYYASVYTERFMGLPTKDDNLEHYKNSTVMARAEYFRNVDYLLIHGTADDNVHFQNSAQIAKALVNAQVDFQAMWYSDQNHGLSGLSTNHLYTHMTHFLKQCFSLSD
Put plainly: FAP FRET assay, FGF21-sequence FRET peptide substrate. Conditions: FRET peptide with human FGF21 sequence, 6 μM, 37° C. The method in brief: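 Recombinant human FAP, 10 ng per reaction, in 50 mM HEPES pH 7.2 with 150 mM NaCl, 0.1 mg/ml BSA, 1 mM EDTA; HyLite Fluor 488/QXL 520 FRET peptide of human FGF21 sequence at 6 μM final, ≤0.1% DMSO, 37° C. IC50 from 8-point curves by four-parameter logistic fit.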

The next experiment has as its target T2, recombinant human PREP (Homo sapiens, UniProt P48147).
T2 construct: purchased R&D System
T2 sequence (P48147 1-710): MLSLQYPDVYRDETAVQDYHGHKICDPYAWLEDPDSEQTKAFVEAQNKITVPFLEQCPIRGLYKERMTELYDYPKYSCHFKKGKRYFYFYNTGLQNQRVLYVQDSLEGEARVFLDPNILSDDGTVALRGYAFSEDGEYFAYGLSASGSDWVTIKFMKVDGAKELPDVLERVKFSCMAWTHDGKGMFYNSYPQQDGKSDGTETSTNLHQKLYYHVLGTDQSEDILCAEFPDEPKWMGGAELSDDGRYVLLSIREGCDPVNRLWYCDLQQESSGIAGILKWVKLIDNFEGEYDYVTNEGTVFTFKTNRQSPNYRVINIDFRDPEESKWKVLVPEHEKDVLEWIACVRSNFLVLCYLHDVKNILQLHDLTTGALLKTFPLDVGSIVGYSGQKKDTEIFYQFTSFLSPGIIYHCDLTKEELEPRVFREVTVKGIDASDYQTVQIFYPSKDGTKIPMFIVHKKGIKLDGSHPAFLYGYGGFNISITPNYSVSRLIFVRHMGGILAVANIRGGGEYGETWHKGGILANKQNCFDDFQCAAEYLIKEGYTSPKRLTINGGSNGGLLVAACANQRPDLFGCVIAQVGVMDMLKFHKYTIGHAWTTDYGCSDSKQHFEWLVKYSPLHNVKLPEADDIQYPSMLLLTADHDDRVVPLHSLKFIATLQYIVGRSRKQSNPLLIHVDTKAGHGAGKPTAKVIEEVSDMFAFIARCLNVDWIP
Briefly: PREP inhibition, fluorogenic substrate Z-Gly-Pro-AMC. The conditions noted are these: Inhibitory Activity (IC50, nM) PREP, recombinant human PREP. In outline:
(§1)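 Enzyme per reaction: 50 ng DPP9, 20 ng DPP8, 10 ng each DPP7 and PREP. Compounds were serially diluted (8 points, up to 0.5% DMSO) and incubated at 25 °C.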

For the next experiment, the target named is T3, recombinant human DPP9 (Homo sapiens, UniProt Q86TI2).
T3 construct: purchased R&D Systems
T3 sequence (Q86TI2 whole entry): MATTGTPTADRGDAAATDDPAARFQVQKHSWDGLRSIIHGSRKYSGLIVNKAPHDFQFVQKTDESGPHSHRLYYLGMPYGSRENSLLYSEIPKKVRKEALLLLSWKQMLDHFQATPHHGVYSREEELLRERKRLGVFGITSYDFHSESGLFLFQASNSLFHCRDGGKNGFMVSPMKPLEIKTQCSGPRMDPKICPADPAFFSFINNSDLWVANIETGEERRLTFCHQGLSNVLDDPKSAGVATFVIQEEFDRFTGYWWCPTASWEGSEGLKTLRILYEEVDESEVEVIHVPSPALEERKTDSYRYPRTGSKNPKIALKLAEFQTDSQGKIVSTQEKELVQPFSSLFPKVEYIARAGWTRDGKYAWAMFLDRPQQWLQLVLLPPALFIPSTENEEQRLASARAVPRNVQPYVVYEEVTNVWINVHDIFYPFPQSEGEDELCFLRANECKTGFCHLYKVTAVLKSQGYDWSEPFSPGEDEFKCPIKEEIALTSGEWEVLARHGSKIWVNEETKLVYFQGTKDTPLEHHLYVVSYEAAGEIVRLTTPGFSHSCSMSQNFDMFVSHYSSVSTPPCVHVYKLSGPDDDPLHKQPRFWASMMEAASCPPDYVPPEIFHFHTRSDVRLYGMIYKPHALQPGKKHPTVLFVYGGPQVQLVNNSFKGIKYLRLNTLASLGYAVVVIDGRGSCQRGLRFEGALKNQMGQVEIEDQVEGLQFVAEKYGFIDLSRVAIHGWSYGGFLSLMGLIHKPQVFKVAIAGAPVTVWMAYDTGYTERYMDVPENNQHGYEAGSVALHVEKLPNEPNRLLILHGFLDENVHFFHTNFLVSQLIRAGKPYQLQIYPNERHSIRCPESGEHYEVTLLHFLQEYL
Briefly: DPP9 inhibition, fluorogenic substrate H-Gly-Pro-AMC. The conditions noted are these: recombinant human DPP9. The method in brief: as §1

In the next experiment the target is T4, recombinant human DPP7 (Homo sapiens, UniProt Q9UHL4).
T4 construct: purchased R&D Systems
Put plainly: DPP7 inhibition, fluorogenic substrate Lys-Pro-AMC. Conditions: recombinant human DPP7. The method in brief: as §1

The next experiment has as its target DPP4 (Homo sapiens, UniProt P27487). Briefly: DPP4 inhibition, fluorogenic substrate H-Gly-Pro-AMC. Also on record: purchased R&D Systems. Conditions: recombinant human DPP4.

Chain of DPP4 (P27487 whole entry): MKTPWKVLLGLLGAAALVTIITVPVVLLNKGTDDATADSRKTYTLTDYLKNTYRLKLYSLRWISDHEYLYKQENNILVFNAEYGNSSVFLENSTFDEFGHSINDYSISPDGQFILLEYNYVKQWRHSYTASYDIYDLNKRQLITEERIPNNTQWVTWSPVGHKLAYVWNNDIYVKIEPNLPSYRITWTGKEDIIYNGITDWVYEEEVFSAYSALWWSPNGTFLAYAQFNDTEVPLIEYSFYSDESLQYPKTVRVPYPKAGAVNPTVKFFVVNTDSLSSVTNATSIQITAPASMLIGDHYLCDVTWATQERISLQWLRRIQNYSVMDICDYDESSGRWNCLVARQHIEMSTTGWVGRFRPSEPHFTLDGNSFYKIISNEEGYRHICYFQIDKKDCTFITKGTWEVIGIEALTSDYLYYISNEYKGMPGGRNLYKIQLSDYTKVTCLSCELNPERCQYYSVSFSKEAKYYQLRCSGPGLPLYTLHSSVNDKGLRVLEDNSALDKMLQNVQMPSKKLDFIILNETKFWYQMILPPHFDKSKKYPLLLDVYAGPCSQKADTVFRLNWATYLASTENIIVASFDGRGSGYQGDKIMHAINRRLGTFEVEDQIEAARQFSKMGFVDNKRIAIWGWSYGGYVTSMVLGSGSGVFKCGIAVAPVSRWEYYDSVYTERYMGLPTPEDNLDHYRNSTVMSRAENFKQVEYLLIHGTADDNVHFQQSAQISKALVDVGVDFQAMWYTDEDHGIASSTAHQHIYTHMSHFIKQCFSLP

Consider `N#C[C@@H]1C[C@H](F)CN1C(=O)CN1CC[C@@H](Nc2cc(C(F)(F)F)cc3ncccc23)C1` [Example 182, (2S,4S)-4-fluoro-1-[2-[(3R)-3-[[7-(trifluoromethyl)-5-quinolyl]amino]pyrrolidin-1-yl]acetyl]pyrrolidine-2-carbonitrile], for which the half-inhibitory concentration (IC50) at Recombinant human FAP came to 0.0033 µM; at recombinant human PREP, 5360 nM; at recombinant human DPP9, 6.69 µM; at recombinant human DPP7, 0.819 µM; on DPP4 it was 4.07 µM.

As to `N#C[C@@H]1CCCN1C(=O)CN1CC[C@H](Nc2ccc(C(=O)Nc3ccccn3)c3ncccc23)C1` [Example 293, N-(2-pyridyl)-5-[[(3S)-1-[2-oxo-2-[(2S)-2-cyanopyrrolidin-1-yl]ethyl]pyrrolidin-3-yl]amino]quinoline-8-carboxamide], the half-maximal inhibitory concentration (IC50) at Recombinant human FAP worked out at 0.0008 µM; on recombinant human PREP, 422 nM; at recombinant human DPP9 it was 1.25 µM; on recombinant human DPP7, 0.122 µM; on DPP4, 2.67 µM.

As for `CC(=O)Nc1ccc(NC2CCN(CC(=O)N3C[C@@H](F)C[C@H]3C#N)CC2)c2cccnc12` [Example 409, N-[5-[[1-[2-oxo-2-[(2S,4S)-2-cyano-4-fluoro-pyrrolidin-1-yl]ethyl]-4-piperidyl]amino]-8-quinolyl]acetamide], the IC50 on Recombinant human FAP was 0.0075 µM; at recombinant human PREP, 1630 nM; on recombinant human DPP9, 1.86 µM; at recombinant human DPP7 it was 0.0626 µM; on DPP4, 1.32 µM.

Take `N#C[C@@H]1CCCN1C(=O)CN1CC[C@H](Nc2ccc(C(=O)Nc3cccnc3)c3ncccc23)C1` [Example 290, N-(3-pyridyl)-5-[[(3S)-1-[2-oxo-2-[(2S)-2-cyanopyrrolidin-1-yl]ethyl]pyrrolidin-3-yl]amino]quinoline-8-carboxamide]: the 50% inhibitory concentration (IC50) at Recombinant human FAP was 0.0011 µM; at recombinant human PREP, 429 nM; at recombinant human DPP9, 0.567 µM; at recombinant human DPP7 it was 0.121 µM; on DPP4, 0.926 µM.

For `COc1cnc2cccc(N[C@@H]3CCN(CC(=O)N4C[C@@H](F)C[C@H]4C#N)C3)c2c1` [Example 205, (2S,4S)-4-fluoro-1-[2-[(3R)-3-[(3-methoxy-5-quinolyl)amino]pyrrolidin-1-yl]acetyl]pyrrolidine-2-carbonitrile], the half-maximal inhibitory concentration (IC50) was found to be 0.0026 µM at Recombinant human FAP; 7500 nM at recombinant human PREP; 3.04 µM at recombinant human DPP9; 1.76 µM on recombinant human DPP7; 0.796 µM at DPP4.

In the case of `CNC(=O)c1ccc(NC2CCN(CC(=O)N3C[C@@H](F)C[C@H]3C#N)CC2)c2cccnc12` [Example 390, N-methyl-5-[[1-[2-oxo-2-[(2S,4S)-2-cyano-4-fluoro-pyrrolidin-1-yl]ethyl]-4-piperidyl]amino]quinoline-8-carboxamide], the IC50 at Recombinant human FAP came out at 0.0059 µM; on recombinant human PREP, 1420 nM; on recombinant human DPP9, 1.32 µM; at recombinant human DPP7, 0.358 µM; at DPP4 it was 1.52 µM.

For `COc1ccnc2ccc(N[C@@H]3CCN(CC(=O)N4C[C@@H](F)C[C@H]4C#N)C3)cc12` [Example 212, (2S,4S)-4-fluoro-1-[2-[(3R)-3-[(4-methoxy-6-quinolyl)amino]pyrrolidin-1-yl]acetyl]pyrrolidine-2-carbonitrile], the IC50 came to 0.008 µM on Recombinant human FAP; 5230 nM on recombinant human PREP; 1.16 µM on recombinant human DPP9; 0.206 µM on recombinant human DPP7; 1.96 µM at DPP4.

For the molecule `COc1ccc2nccc(OC3CCN(CC(=O)N4CCC[C@H]4C#N)CC3)c2c1` [Example 426, (2S)-1-[2-[4-[(6-methoxy-4-quinolyl)oxy]-1-piperidyl]acetyl]pyrrolidine-2-carbonitrile], the IC50 on Recombinant human FAP was 0.0039 µM; on recombinant human PREP it was 10800 nM; at recombinant human DPP9 it was no less than 100 µM; at recombinant human DPP7, 9.4 µM; at DPP4, 54.8 µM.

In general, IC50 refers to the concentration needed to halve the response being measured.
